Data taken from patent US20260345517A1, “DOSAGE REGIMENS FOR TREATING STARGARDT DISEASE” (Alkeus Pharmaceuticals, Inc., priority 2024, published 2026).
Entries after “also recorded” stand apart in the source; their conditions may differ.

System: asymptomatic Stargardt disease patients
Assay: TEASE-3: disease progression
Assay type: in vivo, human
Details: 14 mg daily
Description: The tolerability and effects of gildeuretinol acetate in Stargardt Disease (Clinical trial group 3 also known as TEASE-3) study was an open-label, multicenter, case control study designed to evaluate the efficacy and safety of gildeuretinol acetate on the progression of Stargardt disease in asymptomatic individuals. The trial was conducted at multiple sites in the United States.
To assess the safety and efficacy of gildeuretinol acetate in preventing vision loss in asymptomatic individuals, gildeuretinol acetate 14 mg capsules was administered to individuals showing early signs of retinal damage while maintaining approximately 20/20 vision and no subjective loss of vision. […]
Disease progression was monitored by best-corrected visual acuity (BCVA) reported in number of Early Treatment Diabetic Retinopathy Study (ETDRS) letters, fundus autofluorescence (FAF) imaging, loss of photoreceptors (as measured by the ellipsoid zone band loss) by optical coherence tomography (OCT) according to literature (1-3) and retinal sensitivity by microperimetry. […]

Compound: CC(=O)OC/C=C(C)/C=C/C=C(C)/C=C/C1=C(C)CCCC1(C)C [gildeuretinol acetate, C20-D3-retinol acetate]
- disease progression / vision loss during treatment (in words) (2 to 4 years, asymptomatic patients): arrested loss of vision and retinal pathology; also recorded: no observable disease progression; also recorded: effectively prevented vision loss and further retinal damage; also recorded: no vision loss or disease progression
- photoreceptor and retinal sensitivity outcomes with prolonged treatment (prolonged treatment): trended toward an improvement
